In patent publication US4548943A, “Antiinflammatory, analgesic, or anti-primary dysmenorrheal arylmethylene- and arylmethylindenoimidazoles” (E. I. Du Pont de Nemours and Company, priority 1984, dated 1985):
Where two headings read alike, the source gives them in different places.

Tests used:
[1] = system: adjuvant-induced arthritis in rats; experiment: Established adjuvant-induced arthritis in rats; format: in vivo, rat (male Charles River Lewis); details: for ED50: Rattus norvegicus, read-out: Adjuvant Arthritis ED50; for Adjuvant Arthritis, decrease in paw volume from controls at dose indicated: @ 9 mg/kg
[2] = system: phenylquinone writhing (mice); experiment: Phenylquinone writhing test; format: in vivo, mouse (female white); details: for ED50: Mus musculus, po, read-out: PQW ED50; for PQW ED50: oral
Description: Phenylquinone Writhing Test
A standard procedure for detecting and comparing the analgesic activity of compounds in this series for which there is a good correlation with human efficacy is the standard phenylquinone writhing test modified from Siegmund, et al., Proc. Soc. Exp. Biol. Med., 95, 729 (1957). A test compound suspended in 1% methylcellulose was given orally to fasted (17-21 hours) female white mice, 5-20 animals per double blind test. Aqueous (0.01% phenyl-p-benzoquinone)phenylquinone, 0.20 ml per mouse, was injected intraperitoneally 6 minutes before observations were begun. […] Rev., 11, 115-145 (1947). Data for some of the compounds is summarized in Table 4 together with data for some standard analgetic antiinflammatory drugs.

[3] = biological target: T1, bovine seminal vesicle prostaglandin synthetase (PGS) (Bos taurus, UniProt O62664); experiment: Prostaglandin synthetase inhibition assay; format: biochemical; details: 14C-arachidonic acid 0.02 mM, pH 8.5, 10 minutes
T1 construct: purchased Miles; host or cells: bovine seminal vesicle
T1 sequence (O62664 25-600): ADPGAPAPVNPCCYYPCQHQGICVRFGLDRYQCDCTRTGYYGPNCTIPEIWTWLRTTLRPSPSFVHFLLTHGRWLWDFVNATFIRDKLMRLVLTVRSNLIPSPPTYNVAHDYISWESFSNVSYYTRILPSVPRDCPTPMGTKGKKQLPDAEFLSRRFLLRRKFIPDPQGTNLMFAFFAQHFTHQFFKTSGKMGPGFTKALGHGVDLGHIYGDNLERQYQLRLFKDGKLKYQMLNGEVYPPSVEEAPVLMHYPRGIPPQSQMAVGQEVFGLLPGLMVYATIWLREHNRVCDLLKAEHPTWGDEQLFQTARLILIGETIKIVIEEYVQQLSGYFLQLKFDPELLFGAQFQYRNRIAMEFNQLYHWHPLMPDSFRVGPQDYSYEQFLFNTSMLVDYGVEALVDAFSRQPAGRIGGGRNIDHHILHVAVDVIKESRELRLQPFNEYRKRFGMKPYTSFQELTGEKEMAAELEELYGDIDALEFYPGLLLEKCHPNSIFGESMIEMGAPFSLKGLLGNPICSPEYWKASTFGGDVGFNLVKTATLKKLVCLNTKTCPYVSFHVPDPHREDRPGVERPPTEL
Description: Prostaglandin Synthetase Inhibition Assay
The resulting labelled prostaglandins were isolated on small columns of Bio-Sil® A silica gel. The reaction was buffered with 0.13M Tris.Cl (pH 8.5) and included 0.6 mM epinephrine, 2.1 mM reduced glutathione, and 0.09 mM EDTA, which favored PGE2 as the primary product [C. […] Miles bovine seminal vesicle prostaglandin synthetase (20 μg), inhibitor, cofactor, and buffer were mixed and preincubated for two minutes at 37° C. The substrate was added to initiate the reaction which was run for 10 minutes. The reaction was stopped by freezing in a slurry of dry ice/ethanol. All reactions were run in duplicate. Inhibitors were bead-milled overnight and diluted in reaction buffer (0.2M Tris.Cl, pH 8.5). Inhibition was calculated by the following formula: [formula]

[4] = oral, 7 daily doses, ED50 % decrease from control paw volume, uninjected left hind paw
[5] = fasted female white mice, phenylquinone i.p.

Structure (SMILES) | IC50 [3] | ED50 [1, 4] | ED50 [2, 5] | Adjuvant Arthritis, decrease in paw volume from controls at dose indicated ([1]; oral, 7 daily doses) | PQW ED50 [2, 5] | ED50 [2] | ED50 ([1]; po)
O=S(=O)(c1nc2c([nH]1)/C(=C/c1ccccc1)c1ccccc1-2)C(F)(F)F [Example 5, 1,8-Dihydro(or 3,8-dihydro)-2-(trifluoromethylsulfonyl)-8-(phenylmethylene)indeno[1,2-d]imidazole, E isomer] | 0.023 µM | 5.3 mg/kg | 1 mg/kg | – | – | – | –
FC(F)(F)Sc1nc2c([nH]1)/C(=C/c1ccccc1)c1ccccc1-2 [Example 2] | < 75 µM | – | 35 mg/kg | 12% | – | – | –
O=S(=O)(c1nc2c([nH]1)/C(=C\c1ccccc1)c1ccccc1-2)C(F)(F)F [Example 3] | 0.93 µM | – | > 81 mg/kg | 37% | – | – | –
CC(=O)Oc1ccccc1C(=O)O [Aspirin, aspirin, reference compound] | – | – | – | – | – | 135 mg/kg | –
COc1ccc(CC2c3ccccc3-c3nc(S(=O)(=O)C(F)(F)F)[nH]c32)cc1 (stereo not drawn) [Example 4, 1,8-DIHYDRO(OR 3,8-DIHYDRO)-2-(TRIFLUOROMETHYLSULFONYL)-8-[(4-METHOXYPHENYL)METHYL]INDENO[1,2-d]-IMIDAZOLE] | 1.2 µM | – | – | – | – | – | –
CC(C)Cc1ccc(C(C)C(=O)O)cc1 (stereo not drawn) [Ibuprofen, ibuprofen, reference compound] | – | 80 mg/kg | 10 mg/kg | – | – | – | –
COc1ccc2c(c1)c(CC(=O)O)c(C)n2C(=O)c1ccc(Cl)cc1 [Indomethacin, indomethacin, reference compound] | – | – | – | – | – | 0.35 mg/kg | 0.25 mg/kg

More lines, main results first:

IC50 [3] | Structure (SMILES) | ED50 [1, 4] | ED50 [2, 5] | Adjuvant Arthritis, decrease in paw volume from controls at dose indicated ([1]; oral, 7 daily doses) | PQW ED50 [2, 5] | ED50 [2] | ED50 ([1]; po)
0.42 µM | O=S(=O)(c1nc2c([nH]1)C(=Cc1ccc(F)cc1)c1ccccc1-2)C(F)(F)F [Example 13] | 9.8 mg/kg | 53.6 mg/kg | – | – | – | –
0.02 µM | COc1ccc(C=C2c3ccccc3-c3nc(S(=O)(=O)C(F)(F)F)[nH]c32)cc1 [Example 9, 1,8-Dihydro(or 3,8-dihydro)-2-(trifluoromethylsulfonyl)-8-[(4-methoxyphenyl)methylene]indeno[1,2-d]imidazole, E isomer] | 1.95 mg/kg | – | – | 1.44 mg/kg | – | –
2.7 µM | Fc1ccc(C=C2c3ccccc3-c3nc(SC(F)(F)F)[nH]c32)cc1 [Example 11] | – | 21 mg/kg | 39% | – | – | –
0.48 µM | [O-][S+](c1nc2c([nH]1)C(=Cc1ccc(F)cc1)c1ccccc1-2)C(F)(F)F (stereo not drawn) [Example 12, 1,8-Dihydro(or 3,8-dihydro)-2-(trifluoromethylsulfinyl)-8-[(4-fluorophenyl)methylene]indeno[1,2-d]imidazole, E isomer] | – | 0.76 mg/kg | 48% | – | – | –
0.58 µM | COc1ccc(C=C2c3ccccc3-c3nc(SC(F)(F)F)[nH]c32)cc1 [Example 7] | – | > 108 mg/kg | 39% | – | – | –
270 µM | CCCCC1C(=O)N(c2ccccc2)N(c2ccccc2)C1=O [Phenylbutazone, phenylbutazone, reference compound] | 10 mg/kg | 80 mg/kg | – | – | – | –
0.31 µM | COc1ccc(C=C2c3ccccc3-c3nc(S(=O)(=O)C(F)(F)F)[nH]c32)cc1 [Example 8, 1,8-dihydro(or 3,8-dihydro)-2-(trifluoromethylsulfonyl)-8-[(4-methoxyphenyl)methylene]-indeno[1,2-d]imidazole, Z isomer] | – | – | 5% | > 36 mg/kg | – | –
